Assay results from US20080255243A1, “Stat3 as a theranostic indicator” (priority 2007, published 2008).

Experiments:
[1] = test system: phosphorylation of 4EBP1 and S6 ribosomal protein (mTOR downstream targets); test: Western blotting of xenograft tumor and uninvolved muscle extracts for phosphorylation of mTOR downstream targets; type: in vivo, mouse; details: for phosphorylation of 4EBP1 and S6 (mTOR downstream targets): 20 mg/kg IP every 3 days for 30 days
Experimental: 2×10^6 cells in 0.2 mL total volume per mouse, from either Rh30 alveolar or RD embryonal cell lines, were injected orthotopically into the left hind leg gastrocnemius muscle of a SCID beige murine model. After 1 week, mice were assigned to control (n=8) or CCI-779 treatment groups (n=8). […] (FIG. 6C) CCI-779 was administered at 20 mg/kg/IP every 3 days for 30 days. Protein extracts from Rh30 and RD mouse xenograft tumors or uninvolved muscle were treated with CCI-779 or vehicle for 30 days and analyzed by Western blotting for S6 and 4EBP1 phosphorylation. […] 5. In vivo xenograft tumor model. Animal studies were performed in accordance with guidelines of the National Institutes of Health Animal Care and Use Committee. Female 4-6 week old beige-SCID mice were purchased from Charles River Laboratories (Wilmington, Mass.). Two million viable cells harvested from mid confluent cultures of either Rh30 alveolar or RD embryonal cells in 0.2 ml diluent (5% Tween-80, 5% polyethylene glycol-400 (Sigma, St. Louis, Mo.)) were injected orthotopically into the gastrocnemius muscle in the left hind leg, and after 1 week mice were randomly assigned to control (n=8) or CCI-779 treatment groups (n=8). Mice were treated IP every 3 days for 30 consecutive days with 20 mg/kg/IP of CCI-779 (Developmental Therapeutics Program, National Cancer Institute and Wyeth, Madison, N.J.) or vehicle alone. Tumor growth was measured every 3 days with calipers, and tumor volume was calculated by the formula V (mm^3)=a×b^2, where a is the longest tumor axis, and b is the shortest tumor axis. All mice were sacrificed by asphyxiation with CO2 and underwent necropsy for confirmation of tumor growth. Tumors were excised and snap frozen at -80° C. until analysis. […] Suppression of the mTOR pathway was monitored by measuring the phosphorylation of 4EBP1 and S6 ribosomal protein, which are well-established downstream targets of mTOR.

[2] = test system: Rh30 alveolar cells xenograft; test: Rh30 alveolar rhabdomyosarcoma orthotopic mouse xenograft, tumor growth; type: in vivo; details: SCID-beige mice, 20 mg/kg IP every 3 days for 30 days, vs vehicle, n=8, p=0.0002 (Student's t-test)
Experimental: (§1) 2×10^6 cells in 0.2 mL total volume per mouse, from either Rh30 alveolar or RD embryonal cell lines, were injected orthotopically into the left hind leg gastrocnemius muscle of a SCID beige murine model. After 1 week, mice were assigned to control (n=8) or CCI-779 treatment groups (n=8). […] (FIG. 6C) CCI-779 was administered at 20 mg/kg/IP every 3 days for 30 days. Protein extracts from Rh30 and RD mouse xenograft tumors or uninvolved muscle were treated with CCI-779 or vehicle for 30 days and analyzed by Western blotting for S6 and 4EBP1 phosphorylation. […] 5. In vivo xenograft tumor model. Animal studies were performed in accordance with guidelines of the National Institutes of Health Animal Care and Use Committee. Female 4-6 week old beige-SCID mice were purchased from Charles River Laboratories (Wilmington, Mass.). […] Tumor growth was measured every 3 days with calipers, and tumor volume was calculated by the formula V (mm^3)=a×b^2, where a is the longest tumor axis, and b is the shortest tumor axis. […] Suppression of the mTOR pathway was monitored by measuring the phosphorylation of 4EBP1 and S6 ribosomal protein, which are well-established downstream targets of mTOR.

[3] = test system: RD embryonal cells xenograft; test: RD embryonal rhabdomyosarcoma orthotopic mouse xenograft, tumor growth; type: in vivo; details: SCID-beige mice, 20 mg/kg IP every 3 days for 30 days, vs vehicle, n=8, p=0.00008 (Student's t-test)
Experimental: as §1

Compound: CO[C@H]1C[C@@H]2CC[C@@H](C)[C@@](O)(O2)C(=O)C(=O)N2CCCC[C@H]2C(=O)O[C@H]([C@H](C)C[C@@H]2CC[C@@H](OC(=O)C(C)(CO)CO)[C@H](OC)C2)CC(=O)[C@H](C)/C=C(\C)[C@@H](O)[C@@H](OC)C(=O)[C@H](C)C[C@H](C)/C=C/C=C/C=C/1C [CCI-779, 40-[3-hydroxy(hydroxymethyl)methylpropanoate]-rapamycin]
- phosphorylation of 4EBP1 and S6 (mTOR downstream targets) ([1]; RD embryonal xenograft derived tumors): inhibited the phosphorylation of these downstream targets
- phosphorylation of 4EBP1 and S6 (mTOR downstream targets) ([1]; Rh30 alveolar xenograft derived tumors): inhibited the phosphorylation of these downstream targets
- phosphorylation of mTOR pathway substrates pS6 Ser235/236 and 4EBP1 Thr70 ([1]; time dependent, non-involved muscle and tumor tissue, compared to actin (FIG. 6A)): inhibited phosphorylation of mTOR pathway substrates
- tumor growth / tumor volume measured with calipers [2]: profoundly reduced the growth
- tumor growth / tumor volume measured with calipers ([2]; 20 mg/kg): less in the CCI-779 treatment group as compared to the vehicle alone
- tumor growth / tumor volume measured with calipers [3]: profoundly reduced the growth
- tumor growth / tumor volume measured with calipers ([3]; 20 mg/kg): less in the CCI-779 treatment group as compared to the vehicle alone
